The test system of one test is GP2d cells. Description: Inhibition of 3D proliferation of GP2d cells (CellTiter-Glo 3D). It is filed as cell-based. The following applies: 120 h incubation. On the procedure: (§1) The inhibitory effect of the compound represented by formula I on the KRAS target was evaluated by assessing the inhibitory effect of the compound represented by formula I on the 3D proliferation of GP2d and AGS cells.
GP2d cells (Nanjing Cobioer, CBP60010) were cultured in a complete culture medium, namely a DMEM/high glucose culture medium (Hyclone, SH30243.01) containing 10% fetal bovine serum (Corning, 35-076-CV). On the first day of the experiment, the GP2d cells were seeded into a 96-well low-adsorption plate (Corning, CLS7007-24EA) with a complete culture medium at a density of 1000 cells/well, with each well containing 90 µL of a cell suspension. The plate was centrifuged at 2000 rpm for 5 min at room temperature and then incubated overnight in a cell incubator at 37 °C with 5% CO2.
(§2) The next day, the test compound, serially diluted in a complete culture medium, was added at 10 µL/well. The final concentrations of the compound for GP2d cells were 9 concentration points obtained by 3-fold serial dilution from 1 µM, and the final concentrations of the compound for AGS cells were 9 concentration points obtained by 3-fold serial dilution from 10 µM. A blank control containing 0.5% DMSO was set for both types of cells. […] The luminescence signal values were obtained using a multimode microplate reader (PerkinElmer, ENVISION). […]

The test system of a further test is AGS cells. Description: Inhibition of 3D proliferation of AGS cells (CellTiter-Glo 3D). The test is classed as cell-based. The following applies: Homo sapiens, 120 h incubation. On the procedure:
as §1
AGS cells (Nanjing Cobioer, CBP60476) were cultured in a complete culture medium, namely an RPMI1640 medium (Hyclone, SH30809.01) containing 10% fetal bovine serum (Corning, 35-076-CV). On the first day of the experiment, the AGS cells were seeded into a 96-well low-adsorption plate (Corning, CLS7007-24EA) with a complete culture medium at a density of 1000 cells/well, with each well containing 90 µL of a cell suspension. The plate was centrifuged at 2000 rpm for 5 min at room temperature and then incubated overnight in a cell incubator at 37 °C with 5% CO2.
as §2, with “cells. The plates were incubated in a cell incubator at 37 °C with 5% CO2 for 120 h.” for “cells.”

Test [1] relates to ERK phosphorylation in AGS cells. Description: Inhibition of ERK phosphorylation in AGS cells (HTRF method). The test is classed as cell-based. As to conditions: Homo sapiens, 1 h incubation with compound, phosphorylated ERK/total ERK ratio. On the procedure: In the experiment, the inhibitory effect of the compound represented by formula I on the KRAS target was evaluated by assessing the inhibitory effect of the compound on ERK phosphorylation in cells and based on the IC50.
AGS cells (Nanjing Cobioer, CBP60476) were cultured in an RPMI1640 (Hyclone, SH30809.01) complete culture medium containing 10% fetal bovine serum. On the first day of the experiment, the AGS cells were seeded into a 96-well plate with a complete culture medium at a density of 40,000 cells/well, with each well containing 190 µL of a cell suspension. The plate was incubated overnight in a cell incubator at 37 °C with 5% CO2.
The next day, the test compound, serially diluted in a complete culture medium, was added at 10 µL/well. The final concentrations of the compound were 9 concentration points obtained by 5-fold serial dilution from 10 µM. A blank control containing 0.5% DMSO was set. The plate was incubated in a cell incubator at 37 °C with 5% CO2 for 1 h. […]
On the third day, the fluorescence values at an excitation wavelength of 337 nm and emission wavelengths of 665 nm and 620 nm were obtained using an ENVISION multimode microplate reader (PerkinElmer, ENVISION).
The IC50 value for the inhibitory activity of the compound was calculated using Graphpad Prism software based on the compound concentration and the phosphorylated ERK/total ERK ratio. […]
On the technique in general: Time-resolved FRET reads energy transfer from a long-lived donor to a nearby acceptor.

Test [2] has as its target KRAS protein subtype G12D (Homo sapiens, UniProt P01116, G12D). Description: Affinity for KRAS protein subtype G12D by SPR method (Biacore 8K). As to conditions: biotinylated Avi-KRAS-G12D, single-cycle kinetic mode, 1:1 model. The test is classed as binding. On the procedure: (§3) Biotinylated Avi-KRAS-WT or Avi-KRAS-G12D was diluted to 20 µg/mL with a 1× HBS-P+ (Cat. # BR1006-71) buffer containing 100 mM MgCl2 and then allowed to flow through channel 2 of an SA (Cat. # BR1005-31) biosensor chip for 420 s to obtain a coupling level of approximately 5000-7000 RU. Then samples of the compound were injected sequentially in descending order for 120 s, followed by 720 s of dissociation. The testing was performed using a single-cycle kinetic mode. Reaction signals were detected in real time using a Biacore 8K instrument to obtain association and dissociation curves. After the testing was finished, data analysis was performed using Biacore 8K evaluation software. Data fitting was performed using a 1:1 model, and affinity data were obtained.
A general note: Surface plasmon resonance follows binding to a sensor surface in real time, without labels.

The next test concerns the target KRAS protein subtype WT (Homo sapiens, UniProt P01116). Description: Affinity for KRAS protein subtype WT by SPR method (Biacore 8K). As to conditions: biotinylated Avi-KRAS-WT, single-cycle kinetic mode, 1:1 model. It is filed as binding. As to the method: as §3

KRAS protein subtype G12D, sequence (P01116 1-188 isoform P01116-2 G12D): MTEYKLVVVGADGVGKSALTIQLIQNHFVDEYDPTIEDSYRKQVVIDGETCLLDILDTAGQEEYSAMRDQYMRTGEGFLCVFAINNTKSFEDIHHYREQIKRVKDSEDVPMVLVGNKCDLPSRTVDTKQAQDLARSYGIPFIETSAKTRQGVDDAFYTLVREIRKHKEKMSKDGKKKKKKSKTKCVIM
KRAS protein subtype WT, sequence (P01116 1-188 isoform P01116-2): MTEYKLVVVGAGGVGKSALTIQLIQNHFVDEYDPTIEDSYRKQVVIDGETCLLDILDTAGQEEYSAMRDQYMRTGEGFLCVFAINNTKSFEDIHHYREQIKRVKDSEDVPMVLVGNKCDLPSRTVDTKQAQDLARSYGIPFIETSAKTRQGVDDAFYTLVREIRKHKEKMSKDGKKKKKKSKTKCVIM

As for `CCc1c(F)ccc2cc(O)cc(-c3nc4c5c(nc(OC[C@@]67CCCN6C[C@H](F)C7)nc5c3F)N3C[C@H]5CC[C@H](N5)[C@H]3CO4)c12` [Compound represented by formula I, 5-Ethyl-6-fluoro-4-((5aS,6S,9R)-1-fluoro-12-(((2R,7aS)-2-fluorotetrahydro-1H-pyrrolizin-7a(5H)-yl)methoxy)-5a,6,7,8,9,10-hexahydro-5H-4-oxa-3,10a,11,13,14-pentaaza-6,9-methanonaphtho[1,8-ab]heptalen-2-yl)naphthalen-2-ol], the half-inhibitory concentration (IC50) with GP2d cells was found to be 0.9 nM; in the test on AGS cells, 5.8 nM; in test [1], 0.4 nM. Besides, the Kd in test [2] came to 0.03 nM; at KRAS protein subtype WT it was 1.54 nM.

By IC50 is commonly meant the concentration that gives 50% inhibition. In general, Kd refers to a measure of binding affinity in units of concentration. Read a high Kd as weaker binding.

(Values after patent EP4563151A1, “PHARMACEUTICAL COMPOSITION COMPRISING KRAS G12D INHIBITOR” (Jiangsu Hengrui Pharmaceuticals Co., Ltd., priority 2022, dated 2024).)
